Test results: US20060135589A1, “1h-Indazole-3-carboxamide compounds as cyclin dependent kinase (cdk) inhibitors” (Astex Technology, Inc., priority 2002, published 2006)

What follows are compounds tested against T1, CDK2/CyclinA (Homo sapiens, UniProt P24941) (assay: Measurement of CDK2 kinase inhibitory activity (IC50), 33P-ATP / histone H1 filter assay).
T1 construct: purchased Upstate Biotechnology
Type: biochemical
Procedure: Measurement of CDK2 Kinase Inhibitory Activity (IC50)
Compounds of the invention were tested for kinase inhibitory activity using the following protocol.
1.7 μl of active CDK2/CyclinA (Upstate Biotechnology, 10 U/μl) is diluted in assay buffer (250 μl of 10× strength assay buffer (200 mM MOPS pH 7.2, 250 mM β-glycerophosphate, 50 mM EDTA, 150 mM MgCl2), 11.27 μl 10 mM ATP, 2.5 μl 1M DTT, 25 μl 100 mM sodium orthovanadate, 708.53 μl H2O), and 10 μl mixed with 10 μl of histone substrate mix (60 μl bovine histone H1 (Upstate Biotechnology, 5 mg/ml), 940 μl H2O, 35 μCi γ^33P-ATP) and added to 96 well plates along with 5 μl of various dilutions of the test compound in DMSO (up to 2.5%). The reaction is allowed to proceed for 5 hours before being stopped with an excess of ortho-phosphoric acid (30 μl at 2%).
γ^33P-ATP which remains unincorporated into the histone H1 is separated from phosphorylated histone H1 on a Millipore MAPH filter plate. The wells of the MAPH plate are wetted with 0.5% orthophosphoric acid, and then the results of the reaction are filtered with a Millipore vacuum filtration unit through the wells. Following filtration, the residue is washed twice with 200 μl of 0.5% orthophosphoric acid. Once the filters have dried, 25 μl of Microscint 20 scintillant is added, and then counted on a Packard Topcount for 30 seconds.

| SMILES | inhibition at 50 µM [%] |
| --- | --- |
| O=C(Nc1cccc(-c2nnn[nH]2)c1)c1n[nH]c2ccccc12 [Example 4, N-[3-(1H-tetrazol-5-yl)phenyl]-1H-indazole-3-carboxamide] | ≥ 50 |
| CC(=O)NCc1ccc(NC(=O)c2n[nH]c3ccccc23)cc1 [Example 5, N-[4-(acetylaminomethyl)phenyl]-1H-indazole-3-carboxamide] | ≥ 50 |
| O=C(Nc1ccc(N2CCCC2=O)cc1)c1n[nH]c2ccccc12 [Example 6, N-[4-(2-oxopyrrolidin-1-yl)phenyl]-1H-indazole-3-carboxamide] | ≥ 50 |
| O=C(Nc1cccc(-c2cnco2)c1)c1n[nH]c2ccccc12 [Example 7, N-[3-(oxazol-5-yl)phenyl)-1H-indazole-3-carboxamide] | ≥ 50 |
| O=C(Nc1ccc(-c2c[nH]cn2)cc1)c1n[nH]c2ccccc12 [Example 8, N-[4-(1H-imidazol-4-yl)phenyl]-1H-indazole-3-carboxamide] | ≥ 50 |
| CS(=O)(=O)c1cccc(NC(=O)c2n[nH]c3ccccc23)c1 [Example 9, N-[3-methanesulphonylphenyl]-1H-indazole-3-carboxamide] | ≥ 50 |
| O=C(Nc1ccc(S(=O)(=O)N2CCOCC2)cc1)c1n[nH]c2ccccc12 [Example 10, N-[4-(morpholine-4-sulphonyl)phenyl]-1H-indazole-3-carboxamide] | ≥ 50 |
| O=C(Nc1ccccc1)c1n[nH]c2ccc(I)cc12 [Example 11, N-phenyl-5-iodo-1H-indazole-3-carboxamide] | ≥ 50 |
| NS(=O)(=O)c1ccc(NC(=O)c2n[nH]c3ccc(I)cc23)cc1 [Example 12, N-(4-aminosulphonylphenyl)-5-iodo-1H-indazole-3-carboxamide] | ≥ 50 |
| CNS(=O)(=O)Cc1ccc(NC(=O)c2n[nH]c3ccc(I)cc23)cc1 [Example 13] | ≥ 50 |
| CS(=O)(=O)c1cccc(NC(=O)c2n[nH]c3ccc(I)cc23)c1 [Example 14, N-(3-methanesulphonylphenyl)-5-iodo-1H-indazole-3-carboxamide] | ≥ 50 |
| CC(=O)NCc1ccc(NC(=O)c2n[nH]c3ccc(I)cc23)cc1 [Example 15, N-[4-(acetylaminomethyl)phenyl]-5-iodo-1H-indazole-3-carboxamide] | ≥ 50 |
| O=C(Nc1ccc([N+](=O)[O-])cn1)c1n[nH]c2ccc(I)cc12 [Example 16, N-(5-nitro-pyridin-2-yl)-5-Iodo-1H-indazole-3-carboxamide] | ≥ 50 |
| O=C(Nc1ccccc1)c1n[nH]c2ccc(N3CCOCC3)cc12 [Example 17, 5-Morpholin-4-yl-1H-indazole-3-carboxylic acid phenylamide] | ≥ 50 |
| NS(=O)(=O)c1ccc(NC(=O)c2n[nH]c3ccc([N+](=O)[O-])cc23)cc1 [Example 18, 5-Nitro-1H-indazole-3-carboxylic acid (4-sulphamoyl-phenyl)-amide] | ≥ 50 |
| CNS(=O)(=O)Cc1ccc(NC(=O)c2n[nH]c3ccc([N+](=O)[O-])cc23)cc1 [Example 19, 5-Nitro-1H-indazole-3-carboxylic acid (4-methylsulphamoylmethyl-phenyl)-amide] | ≥ 50 |
| CNS(=O)(=O)Cc1ccc(NC(=O)c2n[nH]c3ccc(-c4cccs4)cc23)cc1 [Example 21, 5-Thiophen-2-yl-1H-indazole-3-carboxylic acid (4-methylsulphamoylmethyl-phenyl)-amide] | ≥ 50 |
| CNS(=O)(=O)Cc1ccc(NC(=O)c2n[nH]c3ccc(-c4c(C)noc4C)cc23)cc1 [Example 22, 5-(3,5-Dimethyl-isoxazol-4-yl)-1H-indazole-3-carboxylic acid (4-methylsulphamoylmethyl-phenyl)-amide] | ≥ 50 |
| CNS(=O)(=O)Cc1ccc(NC(=O)c2n[nH]c3ccc(-c4ccco4)cc23)cc1 [Example 23, 5-Furan-2-yl-1H-indazole-3-carboxylic acid (4-methylsulphamoylmethyl-phenyl)-amide] | ≥ 50 |
| CNS(=O)(=O)Cc1ccc(NC(=O)c2n[nH]c3ccc(-c4cc5ccccc5o4)cc23)cc1 [Example 24, 5-Benzofuran-2-yl-1H-indazole-3-carboxylic acid (4-methylsulphamoylmethyl-phenyl)-amide] | ≥ 50 |
| CNS(=O)(=O)Cc1ccc(NC(=O)c2n[nH]c3ccc(Cl)cc23)cc1 [Example 25, 5-Chloro-1H-indazole-3-carboxylic acid (4-methylsulphamoylmethyl-phenyl)-amide] | ≥ 50 |
| NS(=O)(=O)c1ccc(NC(=O)c2n[nH]c3ccccc23)cc1 [Example 26, 1H-Indazole-3-carboxylic acid (4-sulphamoyl-phenyl)-amide] | ≥ 50 |

| SMILES | inhibition at 50 µM [%] |
| --- | --- |
| O=C(Nc1ccccc1)c1n[nH]c2ccccc12 [Example 27] | ≥ 50 |
| O=C(Nc1ccc(Cl)nc1)c1n[nH]c2ccccc12 [Example 28, 1H-Indazole-3-carboxylic acid (6-chloro-pyridin-3-yl)-amide] | ≥ 50 |
| CNS(=O)(=O)Cc1ccc(NC(=O)c2n[nH]c3ccc(-c4nccs4)cc23)cc1 [Example 29, 5-Thiazol-2-yl-1H-indazole-3-carboxylic acid (4-methylsulphamoylmethyl-phenyl)-amide] | ≥ 50 |
| O=C(Nc1ccc(S(=O)(=O)Nc2nccs2)cc1)c1n[nH]c2ccccc12 [Example 31] | ≥ 50 |
| CNS(=O)(=O)Cc1ccc(NC(=O)c2n[nH]c3ccc(-c4ccccc4)cc23)cc1 [Example 32] | ≥ 50 |
| CS(=O)(=O)NCc1ccc(NC(=O)c2n[nH]c3ccc([N+](=O)[O-])cc23)cc1 [Example 33] | ≥ 50 |
| CCOC(=O)N1CCC(NC(=O)c2n[nH]c3ccc([N+](=O)[O-])cc23)CC1 [Example 34] | ≥ 50 |
| CCCCNC(=O)NS(=O)(=O)c1ccc(NC(=O)c2n[nH]c3ccccc23)cc1 [Example 35] | ≥ 50 |
| N=C(N)NS(=O)(=O)c1ccc(NC(=O)c2n[nH]c3ccccc23)cc1 [Example 36] | ≥ 50 |
| O=C(NC1CCN(Cc2ccccc2)C1)c1n[nH]c2ccc(Cl)cc12 (stereo not shown) [Example 37] | ≥ 50 |
| CCOC(=O)N1CCC(NC(=O)c2n[nH]c3ccc(Cl)cc23)CC1 [Example 38] | ≥ 50 |
| COc1ccc(NC(=O)c2n[nH]c3ccc(I)cc23)cn1 [Example 39] | ≥ 50 |
| O=C(Nc1cccnc1)c1n[nH]c2ccc(I)cc12 [Example 40] | ≥ 50 |
| O=C(Nc1cnc2ccccc2c1)c1n[nH]c2ccc(I)cc12 [Example 41] | ≥ 50 |
| O=C(NC1CCOCC1)c1n[nH]c2ccc(Cl)cc12 [Example 42] | ≥ 50 |
| CN1CCC(NC(=O)c2n[nH]c3ccc(Cl)cc23)CC1 [Example 43] | ≥ 50 |
| O=C(Nc1cccnc1Cl)c1n[nH]c2ccc(I)cc12 [Example 44] | ≥ 50 |
| O=C(NCc1ccccc1)c1n[nH]c2ccc(Cl)cc12 [Example 45] | ≥ 50 |
| CN1CCN(c2ccc(CNC(=O)c3n[nH]c4ccc(Cl)cc34)cc2)CC1 [Example 46] | ≥ 50 |
| O=C(Nc1cccnc1)c1n[nH]c2ccc(Cl)cc12 [Example 47] | ≥ 50 |
| N#Cc1ccc(NC(=O)c2n[nH]c3ccc(I)cc23)cn1 [Example 48] | ≥ 50 |
